Data taken from ChEMBL document CHEMBL1201862, “PubChem BioAssay data set” (2004).
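Protocol summary: plate cells (96-well), add compound at 5 concentrations, incubate 48 h, interpolate endpoints linearly. GI50: concentration for 50% inhibition of growth.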 Activity calls are given as the source filed them. Cut-off read from the data, not from the text of the source: active = GI50 up to about 1.1 µM and inactive = higher. Where a SMILES comes first, the peptide text is derived from it. The star is where a group is joined. Boc = CC(C)(C)OC(=O)*; OBn = c1ccc(CO*)cc1

Columns and labels:
Test in all cases: inhibition of tumour cell growth, NCI panel, 48 h
U-251 = test system: U-251
NCI-H226 = test system: NCI-H226
SNB-75 = test system: SNB-75
OVCAR-8 = test system: OVCAR-8
MDA-N = test system: MDA-N
LOX IMVI = test system: LOX IMVI
K562 = test system: K562
OVCAR-5 = test system: OVCAR-5
COLO 205 = test system: COLO 205
T47D = test system: T47D
HOP-92 = test system: HOP-92
Malme-3M = test system: Malme-3M
CCRF-CEM = test system: CCRF-CEM
A498 = test system: A498
SW-620 = test system: SW-620
PC-3 = test system: PC-3
SR = test system: SR
UACC-62 = test system: UACC-62
SK-MEL-5 = test system: SK-MEL-5
SK-OV-3 = test system: SK-OV-3

SMILES	GI50 (U-251)	GI50 (NCI-H226)	GI50 (SNB-75)	GI50 (OVCAR-8)	GI50 (MDA-N)	GI50 (LOX IMVI)	GI50 (K562)	GI50 (OVCAR-5)	GI50 (COLO 205)	GI50 (T47D)	GI50 (HOP-92)	GI50 (Malme-3M)	GI50 (CCRF-CEM)	GI50 (A498)	GI50 (SW-620)	GI50 (PC-3)	GI50 (SR)	GI50 (UACC-62)	GI50 (SK-MEL-5)	GI50 (SK-OV-3)
COc1ccc2nccc(NCCCN3CCN(CCCNc4ccnc5ccc(OC)cc45)CC3)c2c1	0.232 µM (active)	0.255 µM (active)	0.543 µM (active)	0.612 µM (active)	0.0881 µM (active)	0.272 µM (active)	0.228 µM (active)	0.826 µM (active)	0.261 µM (active)	0.887 µM (active)	0.226 µM (active)	0.644 µM (active)	0.0828 µM (active)	2.58 µM (inactive)	0.11 µM (active)	0.44 µM (active)	0.505 µM (active)	0.918 µM (active)	1.06 µM (active)	1.53 µM (inactive)
COc1cc(S(=O)(=O)Nc2nc(-c3ccc(/N=C/c4ccccc4O)cc3)cs2)ccc1Cl	36.9 µM (inactive)	44.2 µM (inactive)	51.1 µM (inactive)	38.5 µM (inactive)	30.5 µM (inactive)	47 µM (inactive)	30.4 µM (inactive)	> 100 µM (inactive)	25.7 µM (inactive)	27.4 µM (inactive)	29 µM (inactive)	40.3 µM (inactive)	26.5 µM (inactive)	41.7 µM (inactive)	79.8 µM (inactive)	39.1 µM (inactive)	34.7 µM (inactive)	23.7 µM (inactive)	26 µM (inactive)	44.9 µM (inactive)
CC(C)CC(NC(=O)C(Cc1ccccc1)NC(=O)C(Cc1ccccc1)NC(=O)OC(C)(C)C)C(=O)OCc1ccccc1 (stereo not drawn) (Boc-Phe-Phe-Leu-OBn; configuration not given here)	> 100 µM (inactive)	> 100 µM (inactive)	> 100 µM (inactive)	> 100 µM (inactive)	> 100 µM (inactive)	> 100 µM (inactive)	> 100 µM (inactive)	> 100 µM (inactive)	> 100 µM (inactive)	> 100 µM (inactive)	> 100 µM (inactive)	> 100 µM (inactive)	> 100 µM (inactive)	> 100 µM (inactive)	> 100 µM (inactive)	> 100 µM (inactive)	> 100 µM (inactive)	> 100 µM (inactive)	> 100 µM (inactive)	> 100 µM (inactive)
CNC(=O)OCc1c(COC(=O)NC)c(-c2ccc(Cl)c(Cl)c2)n2c1SCC2	7.85 µM (inactive)	0.387 µM (active)	8.77 µM (inactive)	3.85 µM (inactive)	18.5 µM (inactive)	12.4 µM (inactive)	11 µM (inactive)	4.06 µM (inactive)	9.82 µM (inactive)	8.81 µM (inactive)	10.6 µM (inactive)	22.7 µM (inactive)	13.4 µM (inactive)	0.836 µM (active)	10.8 µM (inactive)	17.1 µM (inactive)	2.33 µM (inactive)	5.74 µM (inactive)	13.5 µM (inactive)	6.21 µM (inactive)
C[C@@H](NC(=O)c1ccc(CNC(=O)/C=C/c2cccc(Oc3ccccc3)c2)cc1)c1ccccc1	47.4 µM (inactive)	28.4 µM (inactive)	6.18 µM (inactive)	32.9 µM (inactive)	> 100 µM (inactive)	> 100 µM (inactive)	> 100 µM (inactive)	78.9 µM (inactive)	> 100 µM (inactive)	27.7 µM (inactive)	59.7 µM (inactive)	> 76.2 µM (inactive)	> 100 µM (inactive)	31 µM (inactive)	> 100 µM (inactive)	> 42.4 µM (inactive)	> 100 µM (inactive)	> 82.6 µM (inactive)	99.8 µM (inactive)	> 93.1 µM (inactive)
